What was measured:
Format in all cases: cell-based, human
[1] = system: fibrocyte-adherent CD4+ T cells; experiment: IL-17A and INFγ in fibrocyte-adherent CD4+ T cells (flow cytometry)
Procedure: (§1) Invariably, a small population of tightly adherent T cells were found in the fibrocyte cultures, consistent with the previous findings. Culture viability was routinely verified to be >90%. CD4^+ T cells were enriched using the CD4 isolation cocktail (Cat #0.130-096-533, Miltenyi Biotec, San Diego, CA) followed by negative selection using a magnetic column (Cat #0.130-042-401) according to manufacturer's protocol. Fibrocytes and isolated T cells were cultured and remained untreated or were incubated with human IgG isotype control (5 μg/ml) or teprotumumab (50 μg/mL) for 7 to 9 days. Single cell suspensions were stained with anti-human CD4, CD3, CD34, MHC-2, CD80, CD86, and PD-L1 (BD Biosciences) for 30 min, rinsed and fixed with CytoPerm/CytoFix (BD). They were then stained with anti-human INFγ and IL-17A for 20 min, rinsed, and subjected to the flow cytometry analysis. Gated CD34^+CXCR4^+ fibrocytes and CD4^+CD3^+ T cells were analyzed using quadrant settings based on negative isotype staining.
(§2) In vitro studies of CD34^+ fibrocytes and T cells PBMC and GD-OF monolayers were treated in vitro with human IgG isotype control (5 μg/ml), teprotumumab (50 μg/mL), H7 (5 μg/mL), linsitinib (1 μM), bTSH (5 mIU/mL), M22 (1 μg/mL), or IGF-1 (10 nM) for the intervals indicted in the figure legends in a 37° C., 5% CO2, humidified incubator until confluent. Brefeldin A (0.66 μl/ml), (Golgi Stop™, BD Biosciences), phorbol 12-myristate 13-acetate (PMA) (50 ng/ml) and ionomycin (1 μg/mL) were added for 5 h. Cells were rinsed with flow cytometry buffer (1×PBS, 0.5% BSA, 0.1% sodium azide) and stained with the relevant monoclonal antibodies.

CD34+ fibrocytes = experiment: MHC II, CD80, CD86, PD-L1 expression in cultured fibrocytes (RT-qPCR, flow cytometry)
Text: Fibrocyte and T cell isolation and cultivation. Peripheral blood mononuclear cells (PBMCs) were obtained from the venous circulation of clinic patients with GD, TAO or from healthy donors after obtaining informed consent. PBMCs were also obtained from Red Cross donor plasmapheresis filters. They were isolated by Ficoll-Histopaque (Sigma-Aldrich, St. Louis, MO) density gradient centrifugation. Fibrocytes were cultivated as described (Bucala, R, et al., (1994) Mol Med 1, 71-81, incorporated herein by reference in its entirety) except that culture substrata remained uncoated with fibronectin, as previously described (Douglas, R. S., et al. (2010) The Journal of clinical endocrinology and metabolism 95, 430-438). Isolated PBMCs (1×10^6-1×107) were inoculated in six-well plates covered with DMEM containing 10% FBS and incubated in 10-14 days. Adherent monolayers (<5% of the starting population) were washed with PBS and detached using accutase (Millipore) treatment, or mechanical scraping following accutase treatment. Culture purity was routinely confirmed by FACS analysis to be >90% fibrocytes by confirming the CD31^−CD45^+CD34^+CXCR4^+Col I^+TSFR^high phenotype.
as §1, §2
(§3) Real-time PCR Confluent fibrocyte and GD-OF cultures were incubated with bTSH (5 mIU/mL), teprotumumab (50 μg/mL) or linsitinib (1 μM) for the time intervals indicated, washed with PBS and RNA was extracted with the Aurum Total RNA Mini Kit (cat. #732-6820, Bio-Rad, Hercules, CA). Cellular RNA (2 μg) was reverse transcribed using QuantiTect Reverse Transcription kit (cat. #205314, Qiagen (Germantown, MD) and real-time PCR was performed using an Applied Biosystems instrument with QuantiTect SYBR Green PCR kit (cat. no. 204143; Qiagen, Frederick, MD). Primer sequences were as follows.

fibrocytes = experiment: IL-23p19 and IL-12p35 mRNA expression, real-time PCR; conditions: teprotumumab 50 μg/ml or linsitinib 1 μM, 7-9 d
Procedure: FIGS. 10A-10F are graphs showing the divergent effect of teprotumumab on bTSH induced IL-23p19 and IL-12p35 expression on fibrocytes and GD-OF. Rinsed fibrocyte and GD-OF monolayers were incubated with or without 50 μg/ml teprotumumab (FIGS. 10A and 10B) or 1 μM linsitinib (FIGS. 10C and 10D) and human Isotype IgG for 7-9 d, and bTSH (5 mIU/mL) was added for 6 h. Harvested RNA was reverse transcribed and isolated cDNA was subjected to quantitative real-time PCR for IL-23p19 and IL-12p35 mRNA levels. Values were normalized to their respective GAPDH levels and are expressed as the mean±SD of three independent determinations. Experiments were repeated three times. FIGS. 10E and 10F are graphs showing the levels of IL-23 protein when rinsed fibrocyte and GD-OF monolayers were incubated with or without 50 μg/ml teprotumumab. **, p<0.01; ***. P<0.001.
as §3

[2] = fibrocytes from GD patients (n=28), 50 μg/mL, 9 d
[3] = teprotumumab 50 μg/mL, time-dependent over 9 d treatment

Substance: teprotumumab
- INFγ MFI ([1]; 50 μg/mL, 9 d, control MFI 64.01±10.15): 26.80±5.61
- IL-17A MFI ([1]; 50 μg/mL, 9 d, control isotype MFI 76.03±14.17): 65.17±5.61
- abundance of adherent CD3+CD4+ T cells ([1]; cultures from both donor cohorts): substantially reduced
- effect on MHC II, CD80, CD86, PD-L1 expression, teprotumumab compared with TSHR inhibitor ML224 (CD34+ fibrocytes; 9 d, single agents and in combination): effective
- surface proteins MHC II, CD80, CD86, PD-L1 at 9 days (CD34+ fibrocytes; 9 days): uniformly reduced to levels of detectability or below
- induction of MHC II, CD80, CD86, PD-L1 surface proteins (CD34+ fibrocytes; bTSH-treated fibrocytes): blocked
- frequency of CD34+ fibrocytes (CD34+ fibrocytes; cultures from GD patients and healthy controls): unaffected
- reduction in level of CD80 cell-surface protein (CD34+ fibrocytes; [2]): 52%
- reduction in level of CD86 cell-surface protein (CD34+ fibrocytes; [2]): 49%
- reduction in level of MHC II cell-surface protein (CD34+ fibrocytes; [2]): 57%
- reduction in level of PD-L1 cell-surface protein (CD34+ fibrocytes; [2]): 47%
- induction of MHC II, CD80, CD86, PD-L1 mRNA by bTSH and M22 (CD34+ fibrocytes; teprotumumab 50 μg/mL, 1H7 5 μg/mL, linsitinib 1 μM): blocked
- protein levels of MHC II, CD80, CD86, PD-L1 (CD34+ fibrocytes; [3]): substantially reduced
- steady-state mRNA levels of MHC II, CD80, CD86, PD-L1 (CD34+ fibrocytes; [3]): substantially reduced
- IL-12p35 expression, basal and induction by bTSH (fibrocytes): enhances
- IL-23p19 expression, basal and induction by bTSH (fibrocytes): inhibited
